Measured values reported in patent US20110294992A1, “METAL RESPONSIVE MRI-AGENTS” (The Regents of the University of California, priority 2010, published 2011).
Read-outs that look alike come from different tables or passages of the source. Marks after values point to notes of the source that are not given here. Values belong to the compound of their own block, whether it stands above or below them.

Key:
[1] = Longitudinal relaxivity (r1) from T1 measurements at 60 MHz, absence of copper; type: physicochemical; details: no copper; 60 MHz, 20 mM HEPES buffer, pH 7, 37° C., 0.2 mM Gd^3+
Protocol: (§1) The longitudinal relaxivity values for the CG contrast agents in the absence or presence of copper ions were determined using T1 measurements at 60 MHz. Studies were performed at 37° C. in 20 mM HEPES buffered to pH 7, and solutions of the purified CG sensors for relaxivity experiments contained 0.2 mM Gd^3+ as determined by ICP-OES. Spectroscopic data are collected in Table 1.
Nuclear magnetic relaxation dispersion (NMRD) experiments provide supporting evidence for this proposal (vide infra).

[2] = Longitudinal relaxivity (r1) turn-on response to Cu+ from T1 measurements at 60 MHz; type: physicochemical; details: pH 7, 37° C.
Protocol: as §1
Upon addition of up to 1 equiv of copper ions, the relaxivity values of the CG contrast agents increase, establishing the ability of these probes to sense copper using the MR modality (Table 1, FIG. 3). CG2, CG3, CG4, and CG5 respond to Cu^+ with relaxivity increases ranging from 92% to 360%. […] These values represent the largest relaxivity enhancements observed to date for metal-activated MR contrast agents and a ca. 9-fold improvement in copper ion response compared to CG1 (41% increase). The observed differences in turn-on Cu^+ responses for benzyl-substituted CG4 (290% increase) versus methyl-substituted CG5 (92% increase) with the same pyridyl-thioether receptor show the marked effects that small peripheral substitutions can have on relaxivity properties.

[3] = Electrochemical Cu2+/Cu+ reduction potentials of copper-bound CG complexes; type: physicochemical; details: PBS buffer, pH 7.4
Protocol: CG6 is a unique member of the CG family that is equally responsive to both Cu^+ and Cu^2+. Addition of either Cu^+ or Cu^2+ to CG6 triggers a maximum 73% relaxivity turn-on from r1=2.2 mM^−1s^−1 to r1=3.8 mM^−1s^−1. […] On the other hand, copper-bound CG6, which responds to both Cu^+ and Cu^2+, has the least positive Cu^2+/Cu^+ reduction potential at +0.13 V.

[4] = Apparent Kd for Cu+ by UV-visible absorption with competing ligand thiourea; type: binding; details: 20 mM HEPES buffer, pH 7, 25° C., 1:1 stoichiometry assumed, read-out: Kd (apparent dissociation constant)
Protocol: FIG. 5. Normalized absorbance response of 0.2 mM CG2-6 to buffered Cu^+ (CG2-5) or Cu^2+ (CG6) solutions for Kd value determination. Spectra were acquired in 20 mM HEPES, pH 7.

[5] = Metal ion selectivity of relaxivity response (competing metal ions alone or with added copper); type: physicochemical; details: relaxivity at 60 MHz, 20 mM HEPES, pH 7, 37° C.
Protocol: FIG. 6. Relaxivity responses of CG2 to various metal ions. White bars represent the addition of an excess of the appropriate metal ion (10 mM for Na^+, 2 mM for K^+, Mg^2+, and Ca^2+, and 0.2 mM for Fe^2+, Fe^3+, Cu^2+) to a 0.2 mM solution of CG2. Response to Zn^2+ was measured both at 0.2 mM Zn^2+ (Zn^2+1×) and 2 mM Zn^2+ (Zn^2+10×). Black bars represent the subsequent addition of 0.2 mM Cu^+ to the CG2 solution. Relaxivity measurements were acquired at 37° C. in 20 mM HEPES buffer, pH 7, at a proton Larmor frequency of 60 MHz.
The potential ability of this new family of CG sensors to sense bioavailable copper pools in either or both its predominant oxidation states represents a significant advance over the initial CG1 compound.

[6] = Nuclear magnetic relaxation dispersion (NMRD) profiles, Solomon-Bloembergen-Morgan fit; type: physicochemical; details: copper free
Protocol: FIG. 9. ^1H Nuclear magnetic relaxation dispersion profiles of CG3 and CG3+Cu^+ acquired at 25° C. The solid lines represent the best fit profiles.
As a secondary, independent set of experiments to further probe the mechanisms of copper ion sensing by the CG contrast agents, we also performed nuclear magnetic relaxation dispersion (NMRD) measurements of these sensors in the absence and in the presence of copper ions using a field cycling relaxometer (FIG. 9). The profiles obtained were analyzed following Solomon-Bloembergen-Morgan theory^36-38 for the inner-sphere relaxivity and the Freed model^115 for the outer-sphere relaxivity, fixing the diffusion coefficient (D) at […], the distance between Gd^3+ and the inner sphere water protons (r) at 3.1 Å, and the inner sphere exchange lifetime (τM) at 160 ns, the reported value for the parent complex Gd^3+-DO3A. Profiles were obtained for all compounds in the copper-free state. Profiles in the presence of Cu^n+ were obtained for CG2-4 (Cu^+) and CG6 (Cu^2+).
In fact, the measured outer-sphere relaxivities were so low that, in order to obtain a reasonable fit, the distance of closest approach of outer-sphere water protons (a) was allowed to vary. The distances obtained for the CG complexes (4.2-4.8 Å) were markedly longer than what is observed for typical Gd^3+ contrast agents with greater water access (3.8-4 Å). These values correlate with the copper-free relaxivities of CG2-6; longer a values give lower relaxivities and shorter a values give higher relaxivities. For Cu^+-sensing agents CG2-4, the estimated change in q of 2 as determined by DIS measurements was also observed in the fitted NMRD data. In fact, any attempt to fit the observed NMRD profiles with q=1 led to very poor agreement between experimental and calculated values. The change in q of 1 for CG6 upon addition of Cu^2+ as determined by NMRD is consistent with the lower turn-on response observed with this complex compared to CG2-4. The reduced q modulation for CG6 relative to CG2-4 could indicate that the carboxylic acid moiety used for Cu^2+ binding also interacts with the Gd^3+ center in the Cu^2+-bound state. The fitted rotational correlation times (τR) for copper-bound CG complexes all fall within the range expected for Gd^3+ complexes with molecular weights of 700-800 D. τR values for copper-free CG2-6 were fixed to values close to their copper-bound analogues as fits of NMRD data for q=0 complexes are not sensitive to small changes in τR. The values of Δ^2 (average quadratic transient zero field splitting), τv (electronic correlation time), and τs0 (electronic relaxation time at zero field), which govern the electronic relaxation time, are relatively similar to each other. These NMRD values are closer to those of Gd^3+-DTPA than Gd^3+-DOTA, reflecting the asymmetry of CG2-6.^64

[7] = in water, measured at 10 MHz; cited from earlier work
[8] = Dysprosium-induced 17O NMR shift (DIS) experiments for q; type: physicochemical; details: for −Δ ppm/[Dy] (DIS slope): no Cu^+
Protocol: FIG. 8. Plot of [DyCG2] vs. −Δ ppm of the ^17O signal of H2O in the absence and presence of 1 equiv Cu^+. Spectra were acquired at room temperature in 20 mM HEPES buffer, pH 7, at a ^17O Larmor frequency of 67.8 MHz.
To circumvent these issues, we turned our attention to an alternative method for obtaining q values, namely the application of ^17O NMR spectroscopy to Dy^3+ analogs of the CG sensors (DyCG2-6).^114 Specifically, interactions of water ligands with paramagnetic Dy^3+ ions lead to an upfield shift of the ^17O signals of H2O in a manner proportional to both the concentration of Dy^3+ and q. Moreover, this lanthanide-induced shift is largely insensitive to the non-water ligands coordinated to the paramagnetic metal center.^114 Dysprosium-induced shift (DIS) experiments for CG2 and CG3 were performed in 20 mM HEPES buffered to pH 7; CG4 and CG5 spectra were acquired in 10% acetonitrile in 20 mM HEPES buffered to pH 7 owing to solubility and stability of the Cu^+-bound complexes at higher Dy^3+ concentrations required for the DIS measurements (1-200 mmol/kg H2O). Dy concentrations were calculated using molality (with respect to H2O) since the ^17O shift represents the interaction between Dy^3+ and H2O; addition of CH3CN aids in stabilizing certain complexes but should not affect the DIS. The spectral results were calibrated to a DyCl3 standard (q=9) to determine the number of bound water molecules for the CG sensors with and without added Cu^+. A plot of varying DyCl3 concentrations versus DIS in pH 7 HEPES buffer has a slope of 324 ppm/(mol/kg H2O), which corresponds to a 36 ppm/(mol/kg H2O) shift per bound water molecule.
The effects of DyCG2 on the chemical shift of ^17O-labeled H2O were determined in the absence and presence of 1 equiv Cu^+ at various concentrations of Dy^3+ (FIG. 8). In the absence of Cu^+, the measured ^17O shift response for DyCG2 is 9 ppm/(mol/kg H2O), corresponding to q=0.3. When 1 equiv of Cu^+ is added, the observed shift response increases to 72 ppm/(mol/kg H2O), corresponding to q=2.0. […] DIS measurements of DyCG4 and DyCG5 without Cu^+ show slopes of 7 ppm/(mol/kg H2O) (q=0.2) and 12 ppm/(mol/kg H2O) (q=0.3), respectively. Cu^+ binding increases the DIS slopes for DyCG4 and DyCG5 to […] ([…]) and 41 ppm/(mol/kg H2O) (q=1.0), respectively.

[9] = see reference 90, cited from earlier work

r1 (no Cu) [1]: 1.2 mM⁻¹ s⁻¹
r1 (1 equiv Cu) ([2]; 1 equiv Cu^+, 20 mM HEPES buffer): 2.3^b mM^−1s^−1
Cu^2+/+ E1/2 [3]: 0.34 V vs. SHE
Kd [4]: 0.032 nM
τs0 (electronic relaxation time at zero field) [6]: 95 ps
r1p 20 MHz 25° C. ([6]; 0.5 mM, 20 mM HEPES pH 7): 1.6 mM⁻¹ s⁻¹
a (distance of closest approach of outer-sphere water protons) ([6]; best-fit value): 4.8 ± 0.12 Å
Δ^2 (average quadratic transient zero field splitting) ([6]; best-fit value): 3.5 ± 0.8 10^19 s^−2
τv (electronic correlation time) ([6]; best-fit value): 25 ± 4.2 ps
q ([6]; fixed in the fitting procedure): 0^c
τR (rotational correlation time) ([6]; not experimentally determined, assumed equal to corresponding q ≠ 0 complex (CG5: average of the other complexes)): 100^e ps
SMILES: CCSCCN(C)Cc1cccc(CN2CCN(CC(=O)[O-])CCN(CC(=O)[O-])CCN(CC(=O)[O-])CC2)n1.[Gd+3] [CG5]
% increase in r1 ([2]; 1 equiv Cu^+ vs no Cu, 20 mM HEPES): 92%
redox specificity of relaxivity response (Cu^+ vs Cu^2+) [5]: give turn-on relaxivity increases with Cu^+ but do not respond to Cu^2+

SMILES: [Cu+2] [Cu^2+]
r1 value [7]: 1.0 mM⁻¹ s⁻¹

−Δ ppm/[Dy] (DIS slope) ([8]; 20 mM HEPES, pH 7): 324 ppm/(mol/kg H2O)
−Δ ppm/[Dy] (DIS slope) ([8]; 10% CH3CN in 20 mM HEPES pH 7): 362 ppm/(mol/kg H2O)
shift per bound water molecule ([8]; 10% acetonitrile in 20 mM pH 7 HEPES buffer): 40 ppm/(mol/kg H2O)
shift per bound water molecule ([8]; pH 7 HEPES buffer): 36 ppm/(mol/kg H2O)
SMILES: [Cl][Dy]([Cl])[Cl] [DyCl3, reference compound]
q of calibration standard ([9]; 20 mM HEPES, pH 7): 9^a
q of calibration standard ([9]; 10% CH3CN in 20 mM HEPES pH 7): 9^a
